Assay results as given in patent US10538497B2, “Compounds as indoleamine 2,3-dioxygenase inhibitors” (Merck Sharp & Dohme Corp., priority 2015, dated 2020).

Columns and labels:
IDO1 [1] = target: T1, IDO1 (Homo sapiens (Human), UniProt P14902); assay: IDO1 Cellular Assay in Frozen HEK293 Cells Transiently Transfected with Human IDO1; format: cell-based; conditions: HEK293 cells transiently transfected with human IDO1; read-out: IDO1 HEK293 Cell Assay, IC50
Procedure: IDO1 Cellular Assay in Frozen HEK293 Cells Transiently Transfected with Human IDO1
HEK293 cells were cultured in complete HEK293 culture medium (90% DMEM, 10% heat-inactivated fetal bovine serum). When reaching sub-confluent, the cells were trypsinized and neutralized with complete medium. […] Flag-IDO1 plasmid was added to the cell suspension at a concentration of 100 μg/mL. The cell-plasmid solutions were transferred to the OC-400 processing assembly (Maxcyte), 400 l/unit and the units were placed in a Maxcyte instrument to carry out flow electroporation for transfection. The cells were then transferred to a sterile 24-well cell culture plate to recover for 20-30 min at 37° C. in an incubator with 5% CO2.
Frozen HEK293/IDO1 and HEK293 WT cells were thawed and transferred into HEK293 assay medium (99% complete HEK293 culture medium, 1% Pen/Strep) with 20 mL medium/vial of cells. The cells were spun down at 250 g in a table top centrifuge for 5 min and suspended in same volume of HEK293 assay medium. […] Sterile L-tryptophan were added to the cells with final concentration of 300 μM.
(§1) HEK293/IDO1 and HEK293 WT cells were dispensed to the respective wells of 384-well assay plates containing the compounds. The plates were incubated for about 28-30 h at a 37° C., 5% CO2 incubator. […] The plates were centrifuged for 1 min at 200×g. The resulting fluorescence was measured in a Spectramax plate reader (Molecular Devices) with a 400 nm excitation filter and a 510 nm emission filter.

IDO1 [2] = target: T1, IDO1; assay: IDO1 Cellular Assay in Hela Cells Stimulated with IFNγ; format: cell-based; conditions: Hela cells stimulated with IFNγ 100 ng/mL; read-out: IDO1 HELA Cell Assay, IC50
Procedure: IDO1 Cellular Assay in Hela Cells Stimulated with IFNγ
Hela cells were cultured in complete Hela culture medium (90% EMEM, 10% heat-inactivated fetal bovine serum) and expanded to about 1×10^9 cells. The cells were then collected and frozen down at 10×10^6 cells/vial in 1 mL frozen medium (90% complete Hela culture medium, 10% DMSO)
Frozen Hela cells were thawed and transferred into Hela assay medium (99% complete Hela culture medium, 1% Pen/Strep) with 20 mL medium/vial of cells. The cells were spun down at 250 g in a table top centrifuge for 5 min and suspended in same volume of Hela assay medium. The cells were then counted and adjusted to a density of 2×10^5 cells/ml in Hela assay medium. Sterile L-tryptophan were added to the cells with final concentration of 300 uM L-tryptophan. A small aliquot (2 mL/plate) of Hela cells were set aside and were not treated with IFNγ, to serve as the Max-E control. The rest of Hela cells were added with sterile IFNγ (Cat #285-IF, R & D systems) with a final concentration of 100 ng/mL.
as §1, with “Hela cells with” for “HEK293/IDO1”, “without IFNγ” for “HEK293 WT cells”, “48 hours” for “28-30 h”

IDO1 [3] = target: T1, IDO1; assay: IDO1 Enzyme Assay; conditions: HIS-tagged recombinant IDO1, 40 nM
[4] = read-out: IDO1 Enzyme Assay, IC50

T1 sequence (P14902 whole entry): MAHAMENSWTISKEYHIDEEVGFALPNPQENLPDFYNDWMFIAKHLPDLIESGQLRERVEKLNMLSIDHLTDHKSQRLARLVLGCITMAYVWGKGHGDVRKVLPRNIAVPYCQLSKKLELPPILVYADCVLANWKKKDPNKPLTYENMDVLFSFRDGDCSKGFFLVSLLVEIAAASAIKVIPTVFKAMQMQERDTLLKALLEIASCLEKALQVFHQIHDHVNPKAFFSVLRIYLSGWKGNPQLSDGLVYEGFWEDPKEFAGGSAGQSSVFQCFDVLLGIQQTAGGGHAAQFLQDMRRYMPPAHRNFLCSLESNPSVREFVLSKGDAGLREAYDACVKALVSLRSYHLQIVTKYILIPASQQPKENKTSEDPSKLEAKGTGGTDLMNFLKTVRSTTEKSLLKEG

SMILES | IC50 (IDO1 [1]) [nM] | IC50 (IDO1 [2]) [nM] | IC50 (IDO1 [3]; [4]) [nM] | IC50 (IDO1 [3]; IDO1 Enzyme Assay, IC50, nM) [nM]
CC(C)Nc1c(NCCSc2nonc2/C(=N/O)Nc2ccc(F)c(Br)c2)c(=O)c1=O [Example 94, N-(3-bromo-4-fluorophenyl)-N′-hydroxy-4-{[2-({2-[(1-methylethyl)amino]-3,4-dioxocyclobut-1-en-1-yl}amino)ethyl]sulfanyl}-1,2,5-oxadiazole-3-carboximidamide] | 193 | 73 | 26.8 | –
O=P(O)(O)CCSc1nonc1/C(=N/O)Nc1ccc(F)c(Br)c1 [Example 8, (Z)-(2-((4-(N-(3-Bromo-4-fluorophenyl)-N′-hydroxycarbamimidoyl)-1,2,5-oxadiazol-3-yl)thio)ethyl)phosphonic acid] | 6360 | 7950 | 107 | –
NS(=O)(=O)N1CCC(Sc2nonc2/C(=N/O)Nc2ccc(F)c(Br)c2)CC1 [Example 76, N-(3-bromo-4-fluorophenyl)-N′-hydroxy-4-[(1-sulfamoylpiperidin-4-yl)sulfanyl]-1,2,5-oxadiazole-3-carboximidamide] | 114 | 43.8 | 97.2 | –
ON=C(Nc1ccc(F)c(Br)c1)c1nonc1SCCF [Example 160, N-(3-bromo-4-fluorophenyl)-4-[(2-fluoroethyl)sulfanyl]-N′-hydroxy-1,2,5-oxadiazole-3-carboximidamide] | 61 | 126 | – | 65.7
CCCSc1nonc1/C(=N/O)Nc1ccc(F)c(Br)c1 [Example 23, (Z)-N-(3-bromo-4-fluorophenyl)-N′-hydroxy-4-(propylthio)-1,2,5-oxadiazole-3-carboximidamide] | 263 | 154 | 187 | –
CNC(=O)C1(CSc2nonc2/C(=N/O)Nc2ccc(F)c(Br)c2)CC1 [Example 69, 1-[({4-[N-(3-bromo-4-fluorophenyl)-N′-hydroxycarbamimidoyl]-1,2,5-oxadiazol-3-yl}sulfanyl)methyl]-N-methylcyclopropanecarboxamide] | 103 | 90.8 | – | –
OC[C@H](O)CSc1nonc1/C(=N/O)Nc1ccc(F)c(Cl)c1 [Example 170, N-(3-chloro-4-fluorophenyl)-4-{[(2S)-2,3-dihydroxypropyl]sulfanyl}-N′-hydroxy-1,2,5-oxadiazole-3-carboximidamide] | 132 | 110 | 68.4 | –
OCC(O)CSc1nonc1/C(=N/O)Nc1ccc(F)c(Br)c1 (single isomer, unassigned) [Example 64, N-(3-bromo-4-fluorophenyl)-4-[(2,3-dihydroxypropyl)sulfanyl]-N′-hydroxy-1,2,5-oxadiazole-3-carboximidamide] | 75.9 | 44.1 | – | 49.1
CS(=O)(=O)NCCSc1nonc1/C(=N/O)Nc1ccc(F)c(C(F)F)c1 [Example 183, N-[3-(difluoromethyl)-4-fluorophenyl]-N′-hydroxy-4-({2-[(methylsulfonyl)amino]ethyl}sulfanyl)-1,2,5-oxadiazole-3-carboximidamide] | 25.6 | 58.2 | 52.5 | –
COCCNC(=O)NCCSc1nonc1C(=NO)Nc1ccc(F)c(Br)c1 [Example 132, N-(3-bromo-4-fluorophenyl)-N′-hydroxy-4-[(2-{[(2-methoxyethyl)carbamoyl]amino}ethyl)sulfanyl]-1,2,5-oxadiazole-3-carboximidamide] | 33.1 | 31.7 | – | 32.1
CC(=O)N[C@H](C)CSc1nonc1/C(=N/O)Nc1ccc(F)c(C#N)c1 [Example 179, N-[(1R)-2-({4-[N-(3-cyano-4-fluorophenyl)-N′-hydroxycarbamimidoyl]-1,2,5-oxadiazol-3-yl}sulfanyl)-1-methylethyl]acetamide] | 686 | – | 218 | –
O=c1c(NCCSc2nsnc2/C(=N/O)Nc2ccc(F)c(Br)c2)c(NC2CC2)c1=O [Example 211, N-(3-bromo-4-fluorophenyl)-4-[(2-{[2-(cyclopropylamino)-3,4-dioxocyclobut-1-en-1-yl]amino}ethyl)sulfanyl]-N′-hydroxy-1,2,5-thiadiazole-3-carboximidamide] | 1320 | – | 297 | –

Results, then the molecule that gave them:

IC50 (IDO1 [1]) [nM] | IC50 (IDO1 [2]) [nM] | IC50 (IDO1 [3]; [4]) [nM] | IC50 (IDO1 [3]; IDO1 Enzyme Assay, IC50, nM) [nM] | SMILES
131 | 112 | 72.2 | – | O=c1[nH]nc(CCSc2nonc2/C(=N/O)Nc2ccc(F)c(Br)c2)o1 [Example 141, N-(3-bromo-4-fluorophenyl)-N′-hydroxy-4-{[2-(5-oxo-4,5-dihydro-1,3,4-oxadiazol-2-yl)ethyl]sulfanyl}-1,2,5-oxadiazole-3-carboximidamide]
422 | 820 | 173 | – | CN1C(=O)NC[C@@H]1CSc1nonc1/C(=N/O)Nc1ccc(F)c(C#N)c1 [Example 150, N-(3-cyano-4-fluorophenyl)-N′-hydroxy-4-({[(4R)-3-methyl-2-oxoimidazolidin-4-yl]methyl}sulfanyl)-1,2,5-oxadiazole-3-carboximidamide]
35.4 | 76.5 | – | 47.3 | O=C(CSc1nonc1/C(=N/O)Nc1ccc(F)c(Br)c1)NC1CC1 [Example 113, 2-({4-[N-(3-bromo-4-fluorophenyl)-N′-hydroxycarbamimidoyl]-1,2,5-oxadiazol-3-yl}sulfanyl)-N-cyclopropylacetamide]
79.3 | 156 | – | 96.3 | Cc1nccn1CCSc1nonc1C(=NO)Nc1ccc(F)c(Br)c1 [Example 151, N-(3-bromo-4-fluorophenyl)-N′-hydroxy-4-{[2-(2-methyl-1H-imidazol-1-yl)ethyl]sulfanyl}-1,2,5-oxadiazole-3-carboximidamide]
258 | 702 | 35.3 | – | O=C(NCCSc1nonc1C(=NO)Nc1ccc(F)c(Br)c1)NC1CCCC1 [Example 129, N-(3-bromo-4-fluorophenyI)-4-({2-[(cyclopentylcarbamoyl)amino]ethyl}sulfanyl)-N′-hydroxy-1,2,5-oxadiazole-3-carboximidamide]
786 | 683 | 98.5 | – | OCCCCCCSc1nonc1/C(=N/O)Nc1ccc(F)c(Br)c1 [Example 53, N-(3-bromo-4-fluorophenyl)-N′-hydroxy-4-[(6-hydroxyhexyl)sulfanyl]-1,2,5-oxadiazole-3-carboximidamide]
> 10000 | > 10000 | 105 | – | O=C(O)CSc1nonc1/C(=N/O)Nc1ccc(F)c(Br)c1 [Example 15, (Z)-2-((4-(N-(3-bromo-4-fluorophenyl)-N′-hydroxycarbamimidoyl)-1,2,5-oxadiazol-3-yl)thio)acetic acid]
152 | 150 | 92.2 | – | O/N=C(\Nc1ccc(F)c(Br)c1)c1nonc1SCC1CNC1 [Example 25, (Z)-4-((azetidin-3-ylmethyl)thio)-N-(3-bromo-4-fluorophenyl)-N′-hydroxy-1,2,5-oxadiazole-3-carboximidamide]
25.6 | 54.3 | – | 48.5 | CCNC(=O)CSc1nonc1C(=NO)Nc1ccc(F)c(Br)c1 [Example 110, 2-({4-[N-(3-bromo-4-fluorophenyl)-N′-hydroxycarbamimidoyl]-1,2,5-oxadiazol-3-yl}sulfanyl)-N-ethylacetamide]
524 | 242 | – | – | COC(=O)C1(Sc2nonc2/C(=N/O)Nc2ccc(F)c(Br)c2)CCC1 [Example 21, Methyl (Z)-1-((4-(N-(3-bromo-4-fluorophenyl)-N′-hydroxycarbamimidoyl)-1,2,5-oxadiazol-3-yl)thio)cyclobutane-1-carboxylate]
